According to the OPERA property sets (Mansouri et al. 2018):
≈ marks a conversion by molar mass, not a printed value.

| Structure (SMILES) | solubility (25 °C) [mM] | further results |
| --- | --- | --- |
| O=C(O)c1ccccc1[N+](=O)[O-] | 47 (≈ 7.85 mg/mL) |  |
| Cc1ccc(C)nc1 | 1530 (≈ 164 mg/mL) |  |
| C[C@]12CC[C@@H](O)C[C@@H]1CC[C@@H]1[C@@H]2[C@H](O)C[C@]2(C)C(=O)CC[C@@H]12 |  | solubility (23 °C): 0.255 mM (≈ 0.0782 mg/mL) |
| CN=C(O)Oc1cccc(C)c1 |  | solubility (30 °C): 15.7 mM (≈ 2.6 mg/mL) |
| CC1=CC(=O)c2ccccc2C1=O |  | solubility (30 °C): 0.929 mM (≈ 0.16 mg/mL) |
| O=[N+]([O-])c1ccc(Cl)c(Cl)c1Cl |  | solubility (20 °C): 0.115 mM (≈ 0.026 mg/mL) |
| COc1coc(CSP(=O)(OC)OC)cc1=O |  | solubility: 5350 mM (≈ 1500 mg/mL) |
| CC(C)OC(=O)COc1ccc(Cl)cc1Cl |  | solubility: 0.142 mM (≈ 0.0373 mg/mL) |
| O=C(O)c1c(O)cccc1O |  | solubility: 62 mM (≈ 9.56 mg/mL) |
| NC(=O)CC[C@H](N)C(=O)O | 283 (≈ 41.3 mg/mL) |  |
| COc1ccc2ccc(=O)oc2c1CC=C(C)C |  | solubility (30 °C): 0.0491 mM (≈ 0.012 mg/mL) |
| c1ccc2cc3cc4ccccc4cc3cc2c1 | 6.61e-06 (≈ 1.51e-06 mg/mL) |  |
| CCCC1(CCC)C(=O)NC(=O)NC1=O |  | solubility (20 °C): 2.83 mM (≈ 0.6 mg/mL) |
| N[C@H](CCCC(=O)O)C(=O)O |  | solubility (20 °C): 13.7 mM (≈ 2.2 mg/mL) |
| Cc1cc(=O)[nH]c(=S)[nH]1 | 3.75 (≈ 0.533 mg/mL) |  |
| COP(=O)(OC)OC1=C(Cl)C2C=CCC12 (stereo not given) |  | solubility (23 °C): 9.97 mM (≈ 2.5 mg/mL) |
| ClC(Cl)Br |  | solubility (30 °C): 18.5 mM (≈ 3.03 mg/mL) |
| C[C@@H](O)C(N)=O | 8780 (≈ 782 mg/mL) |  |
| Clc1cc(-c2ccccc2)c(Cl)c(Cl)c1Cl | 4.8e-05 (≈ 1.4e-05 mg/mL) |  |
| CCOC(=O)CC |  | solubility (20 °C): 188 mM (≈ 19.2 mg/mL) |
| CCCOC(C)C | 46 (≈ 4.7 mg/mL) |  |
| C#C[C@]1(O)CC[C@H]2[C@@H]3CCC4=CC(=O)CC[C@]4(C)[C@H]3CC[C@@]21C |  | solubility (27 °C): 0.0022 mM (≈ 0.000687 mg/mL) |
| Cc1ccnc2c1ccc1c(C)ccnc12 | 0.107 (≈ 0.0224 mg/mL) |  |
| CCCCCCCCl | 0.101 (≈ 0.0136 mg/mL) |  |
| O=C(O)COc1ccccc1Cl | 6.86 (≈ 1.28 mg/mL) |  |
| C=CCCCCC | 0.185 (≈ 0.0182 mg/mL) |  |
| CCCCOC(=O)C(C)O (stereo not given) |  | solubility (20 °C): 274 mM (≈ 40 mg/mL) |

| Structure (SMILES) | solubility (25 °C) [mM] | further results |
| --- | --- | --- |
| C=C[C@H]1CN2CCC1C[C@@H]2[C@@H](O)c1ccnc2ccccc12 (stereo not given in full) | 0.744 (≈ 0.219 mg/mL) |  |
| C[C@H](CCC(=O)NCC(=O)O)[C@H]1CC[C@H]2[C@@H]3[C@H](O)C[C@@H]4C[C@H](O)CC[C@]4(C)[C@H]3C[C@H](O)[C@]12C |  | solubility (20 °C): 0.00709 mM (≈ 0.0033 mg/mL) |
| Cc1nnc(-c2ccccc2)c(=O)n1N |  | solubility (20 °C): 8.9 mM (≈ 1.8 mg/mL) |
| COc1ccc2c3c1O[C@H]1[C@@H](O)C=C[C@H]4[C@@H](C2)N(C)CC[C@@]341 |  | solubility (20 °C): 30.1 mM (≈ 9 mg/mL) |
| CCCI |  | solubility (20 °C): 6.3 mM (≈ 1.07 mg/mL) |
| CC1=CCCCC1 | 0.541 (≈ 0.052 mg/mL) |  |
| CC(=O)Oc1c(C(C)(C)C)cc([N+](=O)[O-])c(C)c1[N+](=O)[O-] |  | solubility: 0.0338 mM (≈ 0.01 mg/mL) |
| CC[C@H](O)C(C)C | 197 (≈ 20.1 mg/mL) |  |
| CCC[C@@H](O)CC | 158 (≈ 16.1 mg/mL) |  |
| ClC(Cl)=C(c1ccc(Cl)cc1)c1ccccc1Cl | 0.00044 (≈ 0.00014 mg/mL) |  |
| COC(=O)c1cccnc1 |  | solubility (20 °C): 347 mM (≈ 47.6 mg/mL) |
| Oc1ccc2c(c1)CCCC2 |  | solubility (20 °C): 10.1 mM (≈ 1.5 mg/mL) |
| Clc1cccc(-c2cc(Cl)ccc2Cl)c1 | 0.000982 (≈ 0.000253 mg/mL) |  |
| CC(=O)O[C@]1(C(C)=O)CC[C@H]2[C@@H]3C=C(Cl)C4=CC(=O)C=C[C@]4(C)[C@H]3CC[C@@]21C | 0.0113 (≈ 0.00457 mg/mL) |  |
| COC(C)C | 877 (≈ 65 mg/mL) |  |
| COc1cc(NS(=O)(=O)c2ccc(N)cc2)nc(OC)n1 |  | solubility: 1.11 mM (≈ 0.343 mg/mL) |
| C#CCC | 53.1 (≈ 2.87 mg/mL) |  |
| ClCBr | 129 (≈ 16.7 mg/mL) |  |
| C=C(C)C | 4.69 (≈ 0.263 mg/mL) |  |
| NCCNCCNCCNCCN |  | solubility: 34500 mM (≈ 6540 mg/mL) |
| ClCCCBr | 14.2 (≈ 2.24 mg/mL) |  |
| CCCCNC(=O)n1c(NC(=O)OC)nc2ccccc21 |  | solubility (20 °C): 0.0131 mM (≈ 0.0038 mg/mL) |
| CCOP(=S)(OCC)Oc1cc(C)nc(N(CC)CC)n1 |  | solubility (20 °C): 0.0119 mM (≈ 0.00397 mg/mL) |
| ClC1=C(Cl)[C@]2(Cl)[C@H]3[C@H]([C@@H]4C=C[C@H]3C4)[C@@]1(Cl)C2(Cl)Cl (racemic) | 4.66e-05 (≈ 1.7e-05 mg/mL) |  |
| COc1c2occc2cc2ccc(=O)oc12 |  | solubility (30 °C): 0.22 mM (≈ 0.0476 mg/mL) |
| Cc1c(C(=O)O)c(O)cc2c1C(=O)c1c(O)c([C@@H]3O[C@H](CO)[C@@H](O)[C@H](O)[C@H]3O)c(O)c(O)c1C2=O | 2.64 (≈ 1.3 mg/mL) |  |
| O=c1nc[nH]c2nccnc12 |  | solubility (20 °C): 33.8 mM (≈ 5 mg/mL) |

| Structure (SMILES) | solubility (25 °C) [mM] | further results |
| --- | --- | --- |
| CCCCCCCC | 0.00578 (≈ 0.00066 mg/mL) |  |
| Nc1ccc2cc3ccc(N)cc3nc2c1 |  | solubility (20 °C): 2390 mM (≈ 500 mg/mL) |
| Cc1cc(-c2ccc(N)c(C)c2)ccc1N | 6.12 (≈ 1.3 mg/mL) |  |
| O=C(O)c1ccc(Cl)c(Cl)c1 |  | solubility: 0.32 mM (≈ 0.0611 mg/mL) |
| O=C(O)c1cccc(Br)c1 | 2 (≈ 0.402 mg/mL) |  |
| COCCCNc1nc(NC(C)C)nc(SC)n1 |  | solubility (20 °C): 1.18 mM (≈ 0.32 mg/mL) |
| CCC1(C2=C[C@H]3CC[C@@H](C2)C3)C(=O)NC(=O)NC1=O | 1.7 (≈ 0.446 mg/mL) |  |
| C#CCCCC | 4.73 (≈ 0.388 mg/mL) |  |
| Nc1nc(N)[nH]c(=O)n1 |  | solubility (23 °C): 0.59 mM (≈ 0.075 mg/mL) |
| Fc1ccccc1Br | 2.01 (≈ 0.353 mg/mL) |  |
| C1CCC2CCCCC2C1 (stereo not given) | 0.00643 (≈ 0.000889 mg/mL) |  |
| Cc1cccc2ccccc12 | 0.181 (≈ 0.0258 mg/mL) |  |
| Clc1ccccc1-c1cccc(Cl)c1Cl |  | solubility (20 °C): 0.00114 mM (≈ 0.000293 mg/mL) |
| Fc1ccccc1Cl | 3.84 (≈ 0.501 mg/mL) |  |
| Cc1cccc2c(C)cccc12 | 0.0175 (≈ 0.00274 mg/mL) |  |
| CSc1nc(N=[N+]=[N-])nc(NC(C)C)n1 |  | solubility (20 °C): 0.244 mM (≈ 0.055 mg/mL) |
| Cc1ccccc1Oc1cccnn1 |  | solubility (22 °C): 10.7 mM (≈ 2 mg/mL) |
| CC(C)(C)c1ccccc1 | 0.22 (≈ 0.0295 mg/mL) |  |
| Nc1cccc2nc3ccccc3cc12 |  | solubility (24 °C): 0.06 mM (≈ 0.0117 mg/mL) |
| CC(=O)Nc1ccccc1 | 51.3 (≈ 6.93 mg/mL) |  |
| Ic1cccc2ccccc12 | 0.0282 (≈ 0.00716 mg/mL) |  |
| Cc1ccc2ccccc2c1 | 0.173 (≈ 0.0246 mg/mL) |  |
| CC(=O)C=C(C)C |  | solubility (20 °C): 294 mM (≈ 28.9 mg/mL) |
| O=C(O)c1cc(Cl)cc(Cl)c1 |  | solubility: 0.77 mM (≈ 0.147 mg/mL) |
| COC(=O)c1cc(O)c(O)c(O)c1 |  | solubility: 57.6 mM (≈ 10.6 mg/mL) |
| C=CCCBr | 5.66 (≈ 0.764 mg/mL) |  |
